Consider one compound from patent EP4615450B1 (priority 2023, dated 2024).

The experiment concerns SARS-CoV2. Put plainly: PCR test (Ct value) in patients, three successive lozenges (Beispiel 2). Particulars: result in words; over time with successive administration of several lozenges, also versus placebo. It counts as in vivo, Patienten. From the text: Darüber hinaus wird die antivirale Wirksamkeit einer erfindungsgemäß einsetzbaren Zusammensetzung in Form der in Beispiel 1 beschriebenen Octenidindihydrochlorid-Lutschtablette an weiteren Patienten untersucht. Die Patienten weisen im Hinblick auf SARS-CoV2 vor Verabreichung der Lutschtabletten einen positiven PCR-Test auf (in der nachfolgenden Tabelle 3 unter "Ct0" angegeben).
Die Patienten erhalten insgesamt jeweils drei Octenidindihydrochlorid-Lutschtabletten in definierter zeitlicher Abfolge. Die Lutschzeit beträgt für eine jeweilige Tablette 15 Minuten, wobei jeweils nach jeweils weiteren 15 Minuten ein PCR-Test durchgeführt wird. Der PCR-Test nach Verabreichung der ersten Octenidindihydrochlorid-Lutschtablette wird somit 30 Minuten nach erfolgter Verabreichung durchgeführt (in der nachfolgenden Tabelle 3 unter "Ct1" angeführt).
Die zweite Octenidindihydrochlorid-Lutschtablette wird 2,5 Stunden nach Verabreichung der ersten Lutschtablette verabreicht, wobei der diesbezügliche PCR-Test 3 Stunden nach Verabreichung der ersten Lutschtablette und 30 Minuten nach Verabreichung der zweiten Lutsch-tablette durchgeführt wird (in der nachfolgenden Tabelle 3 unter "Ct2" angeführt). […]

Regarding `CCCCCCCCNc1cc[n+](CCCCCCCCCC[n+]2ccc(NCCCCCCCC)cc2)cc1.[Cl-].[Cl-]` [Octenidindihydrochlorid, 1,1'-(1,10-Decandiyl)bis[4-(octylamino)pyridinium]-dichlorid], the Ct-Wert entry is on record as “deutliche und nachhaltige Zuname des jeweiligen Ct-Werts”.
